Values of other authors, collected in US20110123445A1, “TREATMENT MONITORING” (priority 2008, published 2011).

Legend:
[1] = phase I trial, 57 cancer patients; Adjei et al 2008
ERK phosphorylation = conditions: at the recommended phase II dose; Adjei et al 2008
MEK = conditions: Swiss 3T3 cells; Alessi et al 1995
tumour growth = conditions: Sebolt-Leopold et al 1999, 2004
phosphorylated ERK = conditions: phase II studies; all tumour types, including melanoma, breast, colon, and lung

Cn1cnc2c(F)c(Nc3ccc(Br)cc3Cl)c(C(=O)NOCCO)cc21 [AZD6244]
tolerability [1]: well tolerated
inhibition of ERK phosphorylation (ERK phosphorylation): demonstrable inhibition

COc1cccc(-c2cc(=O)c3ccccc3o2)c1N [PD098059]
suppression of MEK activation by a variety of agonists (MEK): 80-90%

O=C(NOCC1CC1)c1ccc(F)c(F)c1Nc1ccc(I)cc1Cl [PD184352]
inhibition of tumour growth in vivo (tumour growth): inhibit tumour growth in vivo

O=C(NOC[C@H](O)CO)c1ccc(F)c(F)c1Nc1ccc(I)cc1F [PD0325901]
phosphorylated ERK suppression in biopsied tumour tissue (phosphorylated ERK): phosphorylated ERK suppression at all dose levels
